The subject of one test is XVir-N-31. Nature of the test: XVir-N-31 fiber DNA qPCR with BET inhibitors and BET degraders. The test is classed as cell-based, Mastadenovirus, Type C, Serotype 5. As to conditions: UMUC-3 (MOI 10) and RT112 (MOI 50), 24 hours post infection. As to the method: 3×10^4 UMUC-3 cells and 4×10^4 RT112 cells were seeded in 12 well plates in DMEM and RPMI medium. The following day the cells were pretreated with BETi and BETd. 48 hours post seeding the cells were infected with 10 MOI for UMUC-3 and 50 MOI for RT112 and treated with the indicated concentration of BETi and BETd. After each timepoint (4, 24 hour) the cells were washed once with PBS and 200 μl of SDS DNA Lysis Buffer was added. The cells were incubated with Proteinase K before undergoing a Phenol-Chloroform-Isoamylalcohol purification. The DNA was diluted in DNase free water and the concentration of the DNA was determined using a Nanodrop. For each sample a solution of 15 ng/μl was prepared and a RT-qPCR using 75 ng of DNA and a GoTaq Master mix. Specific Fiber forward and reverse primers were used and for the calculation of the Δ ct value specific Actin primers were used as well. For each sample 3 Fiber and 3 Actin values were measured. The calculation was done in excel and each 24 hours was calculated based on its 4 hours value (initial viral entry, before replication).
For orientation: Real-time PCR tracks product formation cycle by cycle.

Another test has as its system SK-N-MC cells. Nature of the test: Cell cycle distribution (propidium iodine) of SK-N-MC cells. The test is classed as cell-based. The settings on record: 48 hours post treatment, MK-1775 at 500 nM. As to the method:
48 hours post treatment cells were washed twice took place with PBS (containing RNase A, 100 U/ml). Cells were trypsinized and centrifuged at 1500 rpm, 4° C. for 5 min. Cells are fixed by adding slowly 1 ml of ice-cold 80% Ethanol drop by drop to the pellet and incubated overnight. Staining was performed by adding 1 ml of staining solution (Propidium Iodine, 50 μg/ml) to the cells and incubating 30-60 min at RT with gentle rocking. MK: MK-1775; LY: LY-2835219.

For a further test, the system named is Rb, phRB and E2F1. Description: Western blot of UMUC cells treated with cell cycle inhibitors. It counts as cell-based, human. As to conditions: 24 hours post-treatment, LEE-011 at 10 μM, MI-1040 at 1 μM. As for the experimental part:
Western Blot analysis of UMUC cells treated with indicated concentrations of CI-1040, Roscovitine, Nutlin-3a and LEE011 (Ribociclib). 1×10^6 cells were seeded in 10 cm dishes. 24 hours post-treatment proteins were isolated using 1% SDS buffer, to achieve the disruption of the nuclear membrane. All samples were drawn up several times into a syringe to disrupt the DNA and subsequently centrifuged at 30000 rpm at 4° C. for 30 minutes. The supernatant was transferred to a new reaction tube and directly used for further steps or stored at −80° C. To separate the proteins a sodium dodecyl sulfate polyacrylamide gel electrophoresis was performed. By means of electrophoresis for approximately two hours at 100V at 4° C., 40 μg of total proteins were loaded and probed against specific indicated antibodies.

The next test deals with UMUC3 cells. Nature of the test: Cell cycle analysis (flow cytometry) of UMUC3 cells. The test is classed as cell-based, human. The settings on record: UMUC3, 48 hours; Roscovitine 10 μM, CI-1040 1 μM, Nutlin-3a 10 μM, LEE011 10 μM; 10 MOI dl703. As to the method: FIG. 10 is a bar diagram showing cell cycle distribution in UMUC3 cells, measured 48 hours post treatment, whereby the concentrations of the […] inhibitors was as follows: Roscovitine: 10 μM, CI-1040: 1 μM, Nutlin-3a: 10 μM, and LEE011: 10 μM.
For cell cycle analysis cells were seeded in 6 well plates (2.5×10E4 c/well). 8 hours before infection with dl703, cells were treated with indicated concentration of cell cycle inhibitors. After infection with 10 MOI dl703 cells were again treated for 48 hours. Untreated cells and dl703 infected cells only, served as control. 48h post infection cells were harvest by trypsinization and fixed with 80% ethanol while vortexing. To investigate the cell cycle status, fixed cells were centrifuged 5 min at RT and 300 g and ethanol was aspirated. Cells were resuspended and washed with 1% BSA-PBS (Bovine Serum Albumin) and again centrifuged. Cells were stained with EDU and cell cycle analysis were performed using the Click-iT™ Plus EdU Flow Cytometry Assay Kits, Catalog nos. C10632 from Thermo Fischer. In addition, after 3× times washing with 1% BSA/PBS cells were stained with PI (Propidium Iodine, 50 μg/ml). Measurement was directly performed after staining with a FACScalibur Flow Cytometry System. Data was analyzed with FlowJo software.
In general terms: Flow cytometry measures light scatter and fluorescence of single cells or particles in a stream.

A further test has as its system dl703. Description: E1A-independent viral DNA replication of dl703 (fiber qPCR). The test is classed as cell-based, Mastadenovirus, Type C, Serotype 5. The settings on record: UMUC cells, 1 μM CI-1040, 50 MOI dl703, 48 hours post infection. As for the experimental part: To investigate the differences in replication of dl703 (Mantwill et al. 2013, Journal of Translational Medicine, 11, 216) under different treatment conditions, DNA-replication analysis was performed. 100,000 UMUC cells were seeded in 6-well plates and grown in DMEM medium containing 10% FCS in 5% CO2 conditions at 37° C. 24 hours post seeding cells were treated for 24 hours with 10 μM Lee (Ribociclib), 1 μM CI-1040, 10 μM Nutlin-3a and 10 μM Roscovertine and again after infection adding an appropriate amount of inhibitors to the medium. Infection with 50 MOI dl703 (Mastadenovirus, Type C, Serotype 5 with a 3.2 kb sized deletion in E1 region) took place 24 hours post treatment. After 4 and 48 hours post infection DNA were isolated and qPCR was performed using specific primers for the viral fiber gene. Fiber fwd. 5′-[…]-3′ (SEQ ID NO: 17); Fiber rev. 5′-[…]-3′ (SEQ ID NO: 18).

Test [1] has as its system T24 cells. Nature of the test: Potency assay/SRB staining, XVir-N-31, Nutlin-3a and Palbociclib. It counts as cell-based, human. The settings on record: T24, 30 μM Nutlin-3a, 500 nM Palbociclib, four dpi. As for the experimental part:
(§1) Cell killing using XVir-N-31 alone and in combination with small molecule inhibitors was analysed in 12-well plates. […] At 1 hpi, complete medium with Palbociclib was added to the cells pretreated with Palbociclib. To the control as well as to the Nutlin treated cell complete medium without inhibitors was added.
A potency assay using T24 cells was carried out for determining the cell killing effect of XVir-N-31 alone, XVir-N-31 with Nutlin-3a, XVir-N-31 with Palbociclib, and XVir-N-31 with both Nutlin-3a and Palbociclib.
(The SRB assay estimates cell density from bound dye.)

Another test deals with T24shRB cells. The test is described as above. It counts as cell-based, human. As to conditions: 30 μM Nutlin-3a, 500 nM Palbociclib, four dpi. As to the method:
as §1
The same potency assay as subject to Example 27.2 was carried out using T24shRB cells. T24shRB cells are T24 cells without Rb expression. Such lacking Rb expression was generated by means of lentiviral transfection, wherein the lentivirus coded for shRNA directed to Rb. The lentivirus vector used was pLKO-RB1-shRNA19 (obtained from Addgene, Watertown, Mass. 02472, USA), the sequence of the shRNA was as follows […] (SEQ ID NO: 39). The procedure is also described by Michaud K et al. (Cancer Res. 2010 Apr. 15. 70(8):3228-38).

In the next test the test system is UMUC-3. Nature of the test: Potency assay (SRB), XVir-N-31, Palbociclib and PARP inhibitor. It counts as cell-based. As to conditions: Homo sapiens; UMUC3 cells; read-out: IC-80 value. As for the experimental part: Seeding of UMUC-3: 3000 cells were seeded per well in 12-well plates and grown over-night in DMEM Medium containing 10% FCS at 37° C. Inhibitor-treatment of cell occurred 24 h past seeding and again 1 hour after infection by adding indicated concentration to the medium. Infection of cells took place 24 h past inhibitor-treatment. Fixation and SRB-staining took place at 1-6 days post infection (dpi: days post infection). 160 nM PARPi correspond to the IC-80 value in UMUC3 cells.

The next test has as its system T24 and UMUC-3. Nature of the test: FACS cell cycle analysis, Talazoparib and Palbociclib. The test is classed as cell-based, human. The settings on record: T24 and UMUC-3, 48 hours. As for the experimental part: The influence of the applied small molecule inhibitors at their indicated concentrations on the cell cycle of bladder cancer cell lines T24 and UMUC-3 was analysed via flow cytometry analysis after DNA staining. 5×10^4 cells were seeded in 6-well plates and 24 hours later treated with appropriate inhibitors. Two days later, at approximately 80% confluency, cells were washed with PBS, trypsinized, washed again and fixated with icecold 80% ethanol. For cell cycle analysis, samples were incubated with the DNA-intercalating dye 7-aminoactinomycine D (7-AAD) and measured via FACS analysis. Evaluation of measured data was performed via the software FlowJo.

Test [2] has as its system T24 cells. Nature of the test: Potency assay (SRB), XVir-N-31, Palbociclib and PARP inhibitor. The test is classed as cell-based. As to conditions: Homo sapiens, T-24, read-out: IC-80 value. As for the experimental part:
12,500 T24 cells were seeded per well in 12-well plates and grown over-night in RPMI Medium containing 10% FCS at 37° C. Inhibitor-treatment of cells occurred 24 h past cell seeding and again 1 hour after infection by adding indicated concentration to the medium. Infection of cells took place 24 h past inhibitor-treatment in 250 μl medium without serum. Fixation and SRB-staining took place at 4 days post infection. PD, Palbociclib; PARPi: BMN673.
For SRB staining, the medium was removed by aspiration. Cells were fixed with 1 ml (per well) 10% cold TCA at 4° C. for 1 hour. TCA was removed by aspiration and cell layers were washed 4× with tap water. Cells were stained with 1 ml (per well) 0.5% SRB (sulforhodamine B) in 1% acetic acid for 30 min. Unbound SRB was removed in five washing steps with 1 ml 1% acetic acid/well; after each washing step, acetic acid was removed by aspiration. Plates were air-dried for 2 hrs. To solubilize the SRB stained cells, 200 μl of 10 mM Tris base was added to each well. […] The 96 well plate was loaded into an Elisa-plate reader and absorption of the samples was measured at 560 nm. […]
In order to show the kinetics of a triple therapy of T24 cells using triple therapy comprising XVir-N-31, Palbociclib and a PARP inhibitor (BMN673 (Talazoparib)), a potency assay was carried out and the potency assessed at different points in time. […]

Another test concerns RT112. Description: IC50 concentration of PD-0332991. As to conditions: Homo sapiens, RT-112. It counts as cell-based. As to the method: (§2) The class of CDK4/6 inhibitors as subject to Example 5 requires expression of RB. Therefor, three RB positive and two RB negative bladder cancer derived cell lines were used and the cells treated with the combination therapy. Cell lines were pretreated for 24 hours with an IC50 concentration of PD-0332991 (T24: 500 nM, RT112: 2000 nM, 253J: 100 nM) and infected with XVir-N-31 (T24 MOI50, 253J MOI 25, RT112 MOI450). Values are the average of at least 2 independent experiments. Error bars show the standard error. Four dpi, cell viability was measured using SRB assays (a, c). (b, d) Lysates of cells were prepared 3 dpi and a titer test was performed on Hek293 cells. Viral titer is shown as fold change relative to control

In a further test the test system is T24. Nature of the test: IC50 concentration of PD-0332991. It counts as cell-based. The settings on record: Homo sapiens, T-24. As for the experimental part: as §2
A further test has as its system 253J. Nature of the test: IC50 concentration of PD-0332991. The settings on record: Homo sapiens. The test is classed as cell-based. As to the method: as §2

With `COc1nnc2ccc(N3CCC(c4ccc(OCCN5CCN(C)C(=O)[C@H]5C)cc4)CC3)nn12` [AZD5153], the “replication of XVir-N-31” value with XVir-N-31 was “highest”.
For the compound `CCN1CCN(Cc2ccc(Nc3ncc(F)c(-c4cc(F)c5nc(C)n(C(C)C)c5c4)n3)nc2)CC1` [Abemaciclib], in the test on SK-N-MC cells, the cell cycle result is reported as “no effect”.
For the compound `O=C(NOCC1CC1)c1ccc(F)c(F)c1Nc1ccc(I)cc1Cl` [CI-1040], in the test on Rb, phRB and E2F1, the “Rb, phRB and E2F1 expression” value is “induced inhibition”. Also, the cell cycle distribution result in the test on UMUC3 cells is recorded as “clear G1-arrest”. The “viral DNA replication of dl703” value in the test on dl703 is listed as “much lower compared to Ribociclib treated cells”.
For the compound `C=CCn1c(=O)c2cnc(Nc3ccc(N4CCN(C)CC4)cc3)nc2n1-c1cccc(C(C)(C)O)n1` [MK-1775], the cell cycle entry in the test on SK-N-MC cells is “increase of cells in G2/M”.
On to `COc1ccc(C2=N[C@@H](c3ccc(Cl)cc3)[C@@H](c3ccc(Cl)cc3)N2C(=O)N2CCNC(=O)C2)c(OC(C)C)c1` [Nutlin-3a], for which the “Rb, phRB and E2F1 expression” value in the test with Rb, phRB and E2F1 is recorded as “no pronounced effect”. In addition, in the test on UMUC3 cells, the cell cycle distribution entry was “only little or no effect on the cell cycle”. Further, the “cell killing by XVir-N-31” value with T24 cells [1] is reported as “enhanced cell killing”. Moreover, the “killing of Rb-negative cells by XVir-N-31” value in the test on T24shRB cells is listed as “not effective”.
`Cn1ncnc1[C@H]1c2n[nH]c(=O)c3cc(F)cc(c23)N[C@@H]1c1ccc(F)cc1` [PARPi]: the IC80 in the test with UMUC-3 is 160 nM; with T24 cells [2] it was 15 nM. Besides, the “G1 arrest on addition of Talazoparib” value with T24 and UMUC-3 is “not influenced”.
The term IC50 denotes the concentration at which inhibition is half-maximal. Regarding `CC(=O)c1c(C)c2cnc(Nc3ccc(N4CCNCC4)cn3)nc2n(C2CCCC2)c1=O` [Palbociclib], the IC50 is 2000 nM with RT112, 500 nM in the test on T24 and 100 nM in the test on 253J.
With `CC[C@H](CO)Nc1nc(NCc2ccccc2)c2ncn(C(C)C)c2n1` [Roscovitine], in the test with Rb, phRB and E2F1, the “Rb, phRB and E2F1 expression” value is “no pronounced effect”. For the same compound, in the test with UMUC3 cells, the cell cycle distribution entry was “slight increase of G2/m arrested cells”.
